In US11173192B2 (priority 2016, dated 2021):
Where no end group is shown, it is not given here.

Columns and labels:
[1] = system: RAW264.7 cells; experiment: MTS cytotoxicity assay, RAW264.7 cells; assay type: cell-based; settings: various concentrations, 12 hours
Description: (§1) HEK293T or RAW264.7 cells were seeded in 96-well plates (10,000 per well) before treatment with Tat-Epep (20-200 μM) for 0-24 hours. Cytotoxicity was determined in a colorimetric assay using MTS [3-(4,5-dimethylthiazole-2-yl)-5-(carboxymethoxyphenyl)-2-(4-sulfophenyl)-2H-tetrazolium salt] (Promega) 20 μL of MTS was added to each well at 37° C. for 1 hour. Optical density at 490 nm was recorded using an automated microplate reader (BioTek). Background absorbance at 630 nm was subtracted from each sample reading.

[2] = system: 293T cells; experiment: MTS cytotoxicity assay, 293T cells; assay type: cell-based; settings: 12 or 24 hours
Description: as §1

[3] = system: MAVS; settings: PCBP2-transfected 293T cells, various concentrations of EPRS
Description: For immunoblotting analysis, cells were lysed with RIPA buffer (20 mM Tris-HCl, pH 7.4, 150 mM NaCl, 1% NP-40, and 1 mM EDTA) containing a protease inhibitor cocktail and a phosphatase inhibitor cocktail (Roche). Whole cell lysates (50 μg to 100 μg) were subjected to SDS-PAGE, followed by immunoblotting with respective antibodies.

[4] = molecular target: T1, interaction between PCBP2 and MAVS (Homo sapiens, UniProt Q15366); experiment: GST precipitation of the PCBP2-MAVS interaction in 293T cells with various amounts of EPRS; assay type: cell-based; settings: 293T cells transfected with MAVS and PCBP2, various amounts of EPRS
T1 construct: FLAG-, Strep-, His-, or GST-tagged full-length and truncated PCBP2 were also prepared; expressed in transfected cells; host or cells: 293T
T1 sequence (Q15366 whole entry, the tested form may be a part): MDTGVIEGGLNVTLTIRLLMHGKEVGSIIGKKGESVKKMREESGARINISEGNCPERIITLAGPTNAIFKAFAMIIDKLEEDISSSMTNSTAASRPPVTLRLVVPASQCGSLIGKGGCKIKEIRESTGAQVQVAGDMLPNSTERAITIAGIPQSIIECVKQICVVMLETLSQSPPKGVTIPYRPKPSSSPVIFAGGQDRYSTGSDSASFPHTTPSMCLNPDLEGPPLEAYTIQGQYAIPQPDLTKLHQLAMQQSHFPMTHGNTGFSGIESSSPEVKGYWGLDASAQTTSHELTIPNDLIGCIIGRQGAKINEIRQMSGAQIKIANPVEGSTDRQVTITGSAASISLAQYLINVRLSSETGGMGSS

[5] = molecular target: T2, binding of PCBP2 to ITCH E3 ligase (Homo sapiens, UniProt Q15366); experiment: GST precipitation of the PCBP2-ITCH interaction in the presence of EPRS; assay type: cell-based
T2 construct: FLAG-, Strep-, His-, or GST-tagged full-length and truncated PCBP2 were also prepared; expressed in transfected cells
T2 sequence (Q15366 whole entry, the tested form may be a part): as above
T2 sequence (Q96J02 whole entry partner, the tested form may be a part): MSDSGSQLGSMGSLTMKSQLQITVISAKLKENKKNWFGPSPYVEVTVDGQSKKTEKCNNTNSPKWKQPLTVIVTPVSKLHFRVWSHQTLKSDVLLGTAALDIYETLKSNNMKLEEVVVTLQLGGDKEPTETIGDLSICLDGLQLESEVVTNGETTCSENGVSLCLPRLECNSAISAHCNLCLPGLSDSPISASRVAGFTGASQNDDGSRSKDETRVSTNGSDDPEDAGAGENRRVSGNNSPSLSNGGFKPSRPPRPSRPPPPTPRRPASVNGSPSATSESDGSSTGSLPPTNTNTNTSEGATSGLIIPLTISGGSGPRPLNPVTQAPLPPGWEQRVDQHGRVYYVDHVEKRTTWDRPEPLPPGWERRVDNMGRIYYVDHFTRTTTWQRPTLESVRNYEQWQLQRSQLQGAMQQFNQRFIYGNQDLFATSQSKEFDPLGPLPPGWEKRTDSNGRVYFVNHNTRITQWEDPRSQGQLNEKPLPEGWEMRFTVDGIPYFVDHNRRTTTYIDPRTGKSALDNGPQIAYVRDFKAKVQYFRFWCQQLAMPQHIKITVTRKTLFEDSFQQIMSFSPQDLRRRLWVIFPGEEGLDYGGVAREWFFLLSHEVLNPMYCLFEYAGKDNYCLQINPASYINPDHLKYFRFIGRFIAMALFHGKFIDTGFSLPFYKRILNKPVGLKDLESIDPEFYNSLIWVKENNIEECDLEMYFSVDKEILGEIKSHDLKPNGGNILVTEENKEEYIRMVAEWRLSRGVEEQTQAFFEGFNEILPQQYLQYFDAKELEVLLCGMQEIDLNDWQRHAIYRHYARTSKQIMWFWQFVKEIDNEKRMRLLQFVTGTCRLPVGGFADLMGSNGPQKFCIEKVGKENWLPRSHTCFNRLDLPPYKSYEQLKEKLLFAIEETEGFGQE

[6] = system: MAVS; settings: 293T cells expressing EPRS, PCBP2, ITCH, Ub; MG-132
[7] = system: VSV; assay type: cell-based, vesicular stomatitis virus (VSV)
[8] = system: VSV-infected RAW264.7 cells; assay type: cell-based
[9] = system: VSV-Indiana; parameters: species or system mice; settings: in vivo, iv
[10] = molecular target: PCBP2 KH1 (aa 11-82) (Homo sapiens, UniProt Q15366); experiment: In vitro pull-down of purified EPRS domains with PCBP2 KH1; settings: purified His-tagged EPRS domains, GST-fused PCBP2 KH1
Sequence of PCBP2 KH1 (aa 11-82) (Q15366 11-82): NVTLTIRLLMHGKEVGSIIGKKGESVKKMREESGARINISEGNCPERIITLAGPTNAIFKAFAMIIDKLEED

[11] = molecular target: T3, PCBP2 (Homo sapiens, UniProt Q15366); experiment: Co-IP of EPRS or its fragments with PCBP2 in 293T cells; assay type: binding; settings: 293T cells transfected with PCBP2 and EPRS plasmids
T3 construct: FLAG-, Strep-, His-, or GST-tagged full-length and truncated PCBP2 were also prepared; expressed in transfected cells; host or cells: 293T
T3 sequence (Q15366 whole entry, species assumed, the tested form may be a part): as the sequence (Q15366 whole entry, the tested form may be a part) above
Description: For immunoprecipitation, cell lysates were pre-cleared by incubation with protein A beads for 1 hour at 4° C. The pre-cleared cell lysates were incubated overnight at 4° C. with the respective antibodies, followed by incubation with 30 μL of protein A/G PLUS-agarose beads for 3 to 4 hours at 4° C. The immunoprecipitates were then collected and washed five times with a lysis buffer before immunoblotting analysis.

YGRKKRRQRRRGGDVSTTKARVAPEKKQDVGKFVELPGAEMG [Tat-Epep]
viability of RAW264.7 cells [1]: no effect on the viability
viability of 293T cells [2]: no effect on the viability

EPRS: glutamyl-prolyl-tRNA synthetase protein, 1512 aa, SEQ ID NO: 63; expressed from plasmid or purified
PCBP2-induced degradation of endogenous MAVS [3]: rescued from this degradation
PCBP2-induced degradation of exogenous MAVS [3]: rescued from this degradation
interaction between PCBP2 and MAVS [4]: significantly reduced
binding of PCBP2 to ITCH E3 ligase [5]: did not disrupt the binding of PCBP2 to ITCH E3 ligase
PCBP2-mediated ubiquitination of exogenous MAVS-FLAG [6]: inhibited PCBP2-mediated ubiquitination of MAVS in a dose-dependent manner
endogenous ubiquitination of MAVS [6]: significantly attenuated in the presence of EPRS

YGRKKRRQRRR-GG-KWDVSTTKARVAPEKKQDVGK (YGRKKRRQRRRGGKWDVSTTKARVAPEKKQDVGK; New Tat-Epep)
viral replication (fluorescence images) [7]: stronger inhibitory effect
increase in IFN-β secretion as compared with Tat-Epep [8]: 2- to 3 fold
increase in IL-6 secretion as compared with Tat-Epep [8]: 2- to 3 fold
VSV viral titers in mouse brains [9]: decrease VSV viral titers in the mouse brains

B1: EPRS (aa 1-196): N-terminal EPRS fragment containing GST-like domain and linker region L1 (protein)
chain: MATLSLTVNSGDPPLGALLAVEHVKDDVSISVEEGKENILHVSENVIFTDVNSILRYLARVATTAGLYGSNLMEHTEIDHWLEFSATKLSSCDSFTSTINELNHCLSLRTYLVGNSLSLADLCVWATLKGNAAWQEQLKQKKAPVHVKRWFGFLEAQQAFQSVGTKWDVSTTKARVAPEKKQDVGKFVELPGAEMG
direct interaction with PCBP2 KH1 (in vitro precipitation) [10]: specifically interacted
interaction with PCBP2 (co-IP) [11]: crucial for the interaction with PCBP2
